Source: US9028845B2, “Chimeric immunomodulatory compounds and methods of using the same-IV” (Dynavax Technologies Corporation, priority 2001, dated 2015)

Legend:
human PBMCs = assay: Human PBMC cytokine response assay (IFN-γ and IFN-α in cell-free medium by ELISA), with or without cPLGA; assay type: cell-based; settings: for IFN-α (pg/ml) Donor 1 / IFN-γ (pg/ml) Donor 1 / IFN-α (pg/ml) Donor 2 / IFN-γ (pg/ml) Donor 2 / IFN-α (pg/ml) Donor 5 / IFN-γ (pg/ml) Donor 5 / IFN-α (pg/ml) Donor 6 / IFN-γ (pg/ml) Donor 6 / IFN-α (pg/ml) Donor 7 / IFN-γ (pg/ml) Donor 7 / IFN-α (pg/ml) Donor 8 / IFN-γ (pg/ml) Donor 8 / IFN-γ (pg/ml) 28065 / IFN-α (pg/ml) 28065 / IFN-α (pg/ml) 28066 / IFN-γ (pg/ml) 28066 / IFN-α (pg/ml) 28067 / IFN-γ (pg/ml) 28067 / IFN-α (pg/ml) 28068 / IFN-γ (pg/ml) 28068 / IFN-α (pg/ml) mean / IFN-γ (pg/ml) mean: 24 h; for IFN-α mean / IFN-γ mean: mean of donors; for IFN-γ (pg/ml) 28065: donor 28065 (high background), 1000 = outside assay limits; for IFN-α (pg/ml) 28065: donor 28065; for IFN-α (pg/ml) 28066 / IFN-γ (pg/ml) 28066: donor 28066; for IFN-α (pg/ml) 28067 / IFN-γ (pg/ml) 28067: donor 28067; for IFN-α (pg/ml) 28068 / IFN-γ (pg/ml) 28068: donor 28068; for immunomodulatory activity (IFN-γ / IFN-α secretion), in words: used alone (no cPLGA);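 for IFN-α (pg/ml) mean: 20 µg/mL compound for 24 hours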;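 for IFN-γ (pg/ml) mean: 20 µg/mL compound for 24 hours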
mouse splenocytes = assay: Mouse splenocyte cytokine secretion (IL-6, IL-12, IFN by ELISA); assay type: cell-based, BALB/c mice; parameters: IFN: unit not given beside the values; settings: 24 h
Protocol: Polynucleotides and chimeric compounds were tested for immunostimulatory activity on mouse splenocytes. Immunostimulation was assessed by measurement of cytokine secretion into the culture media. Cytokine levels in the culture supernatant were determined by enzyme-linked immunosorbent assay (ELISA) tests.
Cells were isolated and prepared using standard techniques. Spleens of 8 to 20 week-old BALB/c mice were harvested and the splenocytes isolated using standard teasing and treatment with ACK lysing buffer from BioWhittaker, Inc. Four spleens were pooled in this experiment. Isolated cells were washed in RPMI 1640 media supplemented with 2% heat-inactivated fetal calf serum (FCS), 50 μM 2-mercaptoethanol, 1% penicillin-streptomycin, and 2 mM L-glutamine and resuspended at approximately […] in 10% FCS/RPMI (RPMI 1640 media with 10% heat-inactivated FCS, 50 μM 2-mercaptoethanol, 1% penicillin-streptomycin, and 2 mM L-glutamine).
Cell cultures were set up in triplicate with approximately 7×10^5 cells/well in a 96-well flat microtiter plate in 100 μl 10% FCS/RPMI with the cells allowed to rest for at lest 1 hour after plating. The indicated test compounds were incubated (at the indicated concentrations) for 24 hours at 37° C. Cell supernatants were harvested and frozen at −80° C. Cytokine production by the cells was determined by ELISAs, as shown in 19.

CD19+ B cells = assay: Human B cell proliferation assay (3H-thymidine incorporation); settings: 2 μg/ml; for cpm1 / cpm2 / cpm3 / mean cpm / mean of both: B cells
mice = assay: Serum cytokines (IL-12 p40, IL-6, TNF-α) after subcutaneous injection in mice; assay type: in vivo; settings: 20 ug subcutaneous, blood 2 hours later
Protocol: Blood was collected 2 hours later. For the LPS positive control group, mice were injected intraperitoneally with a 200 ul volume, and blood was collected 1.5 hours later (i.e., at the peak of LPS induced TNF-α activity). The blood was clotted and the serum was prepared and stored at −80° C. until assayed. Serum cytokines were assayed using Biosource cytoscreen kits for TNF-α and Pharmingen antibody pairs for mIL-6 and mIL-12. All samples were assayed in duplicate.

PBMCs = assay: Human PBMC proliferation assay (3H-thymidine incorporation); assay type: cell-based; settings: Experiment A; for mean cpm: 2 μg/ml
[1] = 20 μg/ml (mixtures: 20 μg/ml total)
[2] = Table 25, mean of donors 28250-28253
[3] = 20 ug/ml, + PLGA = premixed with 100 μg/ml cPLGA
[4] = mean of Donors 5-6, 20 μg/ml (mixtures: 20 μg/ml total)
[5] = mean of donors 28065-28068, 20 ug/ml, + PLGA = premixed with 100 μg/ml cPLGA
[6] = mean of donors 121 and 194, Experiment B

## 5′-TCGTCG-3′-HEG-5′-ACGTTCG-3′-HEG-5′-AGATGAT-3′ [Compound C-10]
Human PBMCs; 20 μg/ml
  IFN-α (pg/ml) Donor 1: 1662 pg/mL
  IFN-γ (pg/ml) Donor 1: 1595 pg/mL
  IFN-α (pg/ml) Donor 2: 50 pg/mL
  IFN-γ (pg/ml) Donor 2: 952 pg/mL
  IFN-α (pg/ml) Donor 7: 46 pg/mL
  IFN-γ (pg/ml) Donor 7: 23 pg/mL
  IFN-α (pg/ml) Donor 8: 539 pg/mL
  IFN-γ (pg/ml) Donor 8: 198 pg/mL
Human PBMCs; [1]
  IFN-α (pg/ml) Donor 5: 91 pg/mL
  IFN-γ (pg/ml) Donor 5: 102 pg/mL
  IFN-α (pg/ml) Donor 6: 1700 pg/mL
  IFN-γ (pg/ml) Donor 6: 806 pg/mL
Human PBMCs; Table 9, donor 28089
  IFN-α: 17 pg/mL
  IFN-γ: 35 pg/mL
Human PBMCs; Table 9, donor 28090
  IFN-α: 61 pg/mL
  IFN-γ: 44 pg/mL
Human PBMCs; Table 9, donor 28098
  IFN-α: 187 pg/mL
  IFN-γ: 174 pg/mL
Human PBMCs; Table 9, donor 28099
  IFN-α: 304 pg/mL
  IFN-γ: 140 pg/mL
Human PBMCs; Table 9
  IFN-α mean: 142 pg/mL
  IFN-γ mean: 98 pg/mL
Human PBMCs; Table 25, donor 28250
  IFN-a: 16 pg/mL
Human PBMCs; Table 25, donor 28250, polynucleotides/spacers at amounts equivalent to the CIC, spacers alone 9 uM
  IFN-g: 337 pg/mL
Human PBMCs; Table 25, donor 28251
  IFN-a: 23 pg/mL
  IFN-g: 163 pg/mL
Human PBMCs; Table 25, donor 28252
  IFN-a: 25 pg/mL
  IFN-g: 776 pg/mL
Human PBMCs; Table 25, donor 28253
  IFN-a: 124 pg/mL
  IFN-g: 898 pg/mL
Human PBMCs; [2]
  IFN-a mean: 47 pg/mL
  IFN-g mean: 544 pg/mL
Human PBMCs; [3]
  IFN-γ (pg/ml) 28065: 1000 pg/mL
  IFN-α (pg/ml) 28065: 116 pg/mL
  IFN-α (pg/ml) 28066: 6 pg/mL
  IFN-γ (pg/ml) 28066: 9 pg/mL
  IFN-α (pg/ml) 28067: 107 pg/mL
  IFN-γ (pg/ml) 28067: 51 pg/mL
  IFN-α (pg/ml) 28068: 340 pg/mL
  IFN-γ (pg/ml) 28068: 559 pg/mL
Human PBMCs; mean of Donors 1-2, 20 μg/ml
  IFN-α (pg/ml) mean: 856 pg/mL
  IFN-γ (pg/ml) mean: 1273 pg/mL
Human PBMCs; [4]
  IFN-α (pg/ml) mean: 896 pg/mL
  IFN-γ (pg/ml) mean: 454 pg/mL
Human PBMCs; mean of Donors 7-8, 20 μg/ml
  IFN-α (pg/ml) mean: 293 pg/mL
  IFN-γ (pg/ml) mean: 111 pg/mL
Human PBMCs; [5]
  IFN-α (pg/ml) mean: 142 pg/mL
  IFN-γ (pg/ml) mean: 405 pg/mL
Human PBMCs
  immunomodulatory activity (IFN-γ / IFN-α secretion), in words: did have immunomodulatory activity
Mouse splenocytes; dose 0.1 μg/ml
  IFN: 9
  IL-6: 9
  IL-12: 122
Mouse splenocytes; dose 1.0 μg/ml
  IFN: 104
  IL-6: 1761
  IL-12: 1738
Mouse splenocytes; dose 5.0 μg/ml
  IFN: 199
  IL-6: 3342
  IL-12: 2329
CD19+ B cells; donor 121, Experiment B
  cpm1: 15142 cpm
  cpm2: 14136 cpm
  cpm3: 16158 cpm
CD19+ B cells; donor 121 mean, Experiment B
  mean cpm: 15145 cpm
CD19+ B cells; donor 194, Experiment B
  cpm1: 7480 cpm
  cpm2: 5458 cpm
  cpm3: 5943 cpm
CD19+ B cells; donor 194 mean, Experiment B
  mean cpm: 6294 cpm
CD19+ B cells; [6]
  mean of both: 10720 cpm

## 5′-AACGTT-3′ [Compound P-11]
mice
  induction of serum IL-12 p40, IL-6 and TNF-α, in words: inactive

## 5′-TCGTCG-3′- C3-5′-ACGTTCG-3′-C3-5′-AGATGAT-3′ [Compound C-11]
Human PBMCs; 20 μg/ml
  IFN-α (pg/ml) Donor 1: 119 pg/mL
  IFN-γ (pg/ml) Donor 1: 2308 pg/mL
  IFN-α (pg/ml) Donor 2: 0 pg/mL
  IFN-γ (pg/ml) Donor 2: 270 pg/mL
  IFN-α (pg/ml) Donor 7: 6 pg/mL
  IFN-γ (pg/ml) Donor 7: 5 pg/mL
  IFN-α (pg/ml) Donor 8: 56 pg/mL
  IFN-γ (pg/ml) Donor 8: 419 pg/mL
Human PBMCs; [1]
  IFN-α (pg/ml) Donor 5: 76 pg/mL
  IFN-γ (pg/ml) Donor 5: 25 pg/mL
  IFN-α (pg/ml) Donor 6: 175 pg/mL
  IFN-γ (pg/ml) Donor 6: 792 pg/mL
Human PBMCs; mean of Donors 1-2, 20 μg/ml
  IFN-α (pg/ml) mean: 59 pg/mL
  IFN-γ (pg/ml) mean: 1289 pg/mL
Human PBMCs; [4]
  IFN-α (pg/ml) mean: 126 pg/mL
  IFN-γ (pg/ml) mean: 409 pg/mL
Human PBMCs; mean of Donors 7-8, 20 μg/ml
  IFN-α (pg/ml) mean: 31 pg/mL
  IFN-γ (pg/ml) mean: 212 pg/mL
Human PBMCs
  immunomodulatory activity (IFN-γ / IFN-α secretion), in words: did have immunomodulatory activity
Mouse splenocytes; dose 0.1 μg/ml
  IFN: 960
  IL-6: 458
  IL-12: 3359
Mouse splenocytes; dose 1.0 μg/ml
  IFN: 3220
  IL-6: 11814
  IL-12: 4914
Mouse splenocytes; dose 5.0 μg/ml
  IFN: 3342
  IL-6: 10098
  IL-12: 4279
CD19+ B cells; donor 121, Experiment B
  cpm1: 30367 cpm
  cpm2: 30412 cpm
  cpm3: 18528 cpm
CD19+ B cells; donor 121 mean, Experiment B
  mean cpm: 26436 cpm
CD19+ B cells; donor 194, Experiment B
  cpm1: 16967 cpm
  cpm2: 20898 cpm
  cpm3: 11253 cpm
CD19+ B cells; donor 194 mean, Experiment B
  mean cpm: 16373 cpm
CD19+ B cells; [6]
  mean of both: 21404 cpm

## 5′-TGCTGC-3′-HEG-5′-AGCTTGC-3′-HEG-5′-AGATGAT-3′ [Compound M-1, reference compound]
Human PBMCs; Table 10, donor 28042
  IFN-α: 0 pg/mL
  IFN-γ: 45 pg/mL
Human PBMCs; Table 10, donor 28043
  IFN-α: 0 pg/mL
  IFN-γ: 29 pg/mL
Human PBMCs; Table 10, donor 28044
  IFN-α: 13 pg/mL
  IFN-γ: 7 pg/mL
Human PBMCs; Table 10, donor 28045
  IFN-α: 2 pg/mL
  IFN-γ: 3 pg/mL
Human PBMCs; Table 10
  IFN-α mean: 4 pg/mL
  IFN-γ mean: 21 pg/mL
Human PBMCs; [3]
  IFN-γ (pg/ml) 28065: 157 pg/mL
  IFN-α (pg/ml) 28065: 0 pg/mL
  IFN-α (pg/ml) 28066: 0 pg/mL
  IFN-γ (pg/ml) 28066: 1 pg/mL
  IFN-α (pg/ml) 28067: 3 pg/mL
  IFN-γ (pg/ml) 28067: 40 pg/mL
  IFN-α (pg/ml) 28068: 0 pg/mL
  IFN-γ (pg/ml) 28068: 2 pg/mL
Human PBMCs; [5]
  IFN-α (pg/ml) mean: 1 pg/mL
  IFN-γ (pg/ml) mean: 50 pg/mL
Human PBMCs
  immunomodulatory activity (IFN-γ / IFN-α secretion), in words: did not show activity
CD19+ B cells; 48 h plus 8 h 3H-thymidine pulse
  B cell proliferation, in words: little to no B cell proliferation
CD19+ B cells; Donor 146, Experiment A
  cpm1: 1514 cpm
  cpm2: 2815 cpm
  cpm3: 1173 cpm
CD19+ B cells; Donor 146 mean, Experiment A
  mean cpm: 1834 cpm
CD19+ B cells; Donor 147, Experiment A
  cpm1: 1679 cpm
  cpm2: 1667 cpm
  cpm3: 1436 cpm
CD19+ B cells; Donor 147 mean, Experiment A
  mean cpm: 1594 cpm
CD19+ B cells; mean of Donors 146 and 147, Experiment A
  mean of both: 1714 cpm
PBMCs; Donor 146, 2 μg/ml
  cpm1: 8753 cpm
  cpm2: 5203 cpm
  cpm3: 4496 cpm
PBMCs; Donor 146 mean
  mean cpm: 6151 cpm
PBMCs; Donor 147, 2 μg/ml
  cpm1: 1034 cpm
  cpm2: 3298 cpm
  cpm3: 1674 cpm
PBMCs; Donor 147 mean
  mean cpm: 2002 cpm
PBMCs; mean of Donors 146 and 147, 2 μg/ml
  mean of both: 4076 cpm
